Data on four compounds can be found in BindingDB's records for doi:10.1016/0960-894X(96)00057-1 (1996).

The nature of assay [1]: Compound was tested for inhibition of HL60 cell adhesion to recombinant P-selectin-IgG fusion protein obtained from transfected COS cells.
Assay in assay [2]: as above
This is another data set of the same source.

The structures appear in SMILES notation.

The term IC50 denotes the concentration that inhibits the measured activity by half. For the compound `CC(=O)N[C@@H]1[C@H](OCCCCCC/N=C(S)/N=C2\C=CC(=C3c4ccc(O)cc4Oc4cc(O)ccc43)C(C(=O)O)=C2)O[C@@H](CO)[C@@H](O[C@@H]2O[C@@H](CO)[C@H](O)[C@H](O[C@]3(C(=O)O)C[C@@H](O)[C@@H](NC(C)=O)[C@H]([C@H](O)[C@H](O)CO)O3)[C@@H]2O)[C@@H]1O[C@@H]1O[C@@H](C)[C@@H](O)[C@H](O)[C@@H]1O`, the IC50 in assay [1] stood at 900 µM.

For `CC(=O)N[C@H]1[C@H]([C@H](O)[C@H](O)CO)O[C@@](O[C@@H]2[C@H](O)[C@H](O[C@H]3[C@H](O[C@@H]4O[C@@H](C)[C@@H](O)[C@H](O)[C@@H]4O)[C@H](NC(C)=O)[C@H](NC(=O)[C@H](C)NC(=O)[C@H](CC(=O)O)NC(=O)CNC(=O)[C@@H](N)CCCN=C(N)N)O[C@H]3CO)O[C@@H](CO)[C@@H]2O)(C(=O)O)C[C@H]1O`, in assay [1], the IC50 was found to be 26 µM.

`CC(=O)N[C@@H]1[C@H](OCCCCCCNC(=O)CCC(=O)O)O[C@@H](CO)[C@@H](O[C@@H]2O[C@@H](CO)[C@H](O)[C@H](O[C@]3(C(=O)O)C[C@@H](O)[C@@H](NC(C)=O)[C@H]([C@H](O)[C@H](O)CO)O3)[C@@H]2O)[C@@H]1O[C@@H]1O[C@@H](C)[C@@H](O)[C@H](O)[C@@H]1O` [Sialyl-LewisX Conjugate]: the IC50 in assay [2] is 1500 µM.

As to `CC(=O)N[C@@H]1[C@H](OCCCCCCNC(=O)[C@H]2CC[C@H](CN3C(=O)C=CC3=O)CC2)O[C@@H](CO)[C@@H](O[C@@H]2O[C@@H](CO)[C@H](O)[C@H](O[C@]3(C(=O)O)C[C@@H](O)[C@@H](NC(C)=O)[C@H]([C@H](O)[C@H](O)CO)O3)[C@@H]2O)[C@@H]1O[C@@H]1O[C@@H](C)[C@@H](O)[C@H](O)[C@@H]1O` [Sialyl-LewisX Conjugate], the concentration for half-maximal inhibition (IC50) in assay [2] is 380 µM.
